The values below come from BindingDB's records for doi:10.1111/cbdd.12105 (Umdnj-New Jersey Medical School, 2013).

The target of this experiment is Genome polyprotein (Hepatitis C virus genotype 1b (isolate BK), UniProt P26663). The experiment in a line: NS5B Inhibition Assay. The settings on record: pH 7; 30 °C. An excerpt: Inhibition assay using HCV NS5B.
Chain of Genome polyprotein (P26663 2420-3010 limits assumed): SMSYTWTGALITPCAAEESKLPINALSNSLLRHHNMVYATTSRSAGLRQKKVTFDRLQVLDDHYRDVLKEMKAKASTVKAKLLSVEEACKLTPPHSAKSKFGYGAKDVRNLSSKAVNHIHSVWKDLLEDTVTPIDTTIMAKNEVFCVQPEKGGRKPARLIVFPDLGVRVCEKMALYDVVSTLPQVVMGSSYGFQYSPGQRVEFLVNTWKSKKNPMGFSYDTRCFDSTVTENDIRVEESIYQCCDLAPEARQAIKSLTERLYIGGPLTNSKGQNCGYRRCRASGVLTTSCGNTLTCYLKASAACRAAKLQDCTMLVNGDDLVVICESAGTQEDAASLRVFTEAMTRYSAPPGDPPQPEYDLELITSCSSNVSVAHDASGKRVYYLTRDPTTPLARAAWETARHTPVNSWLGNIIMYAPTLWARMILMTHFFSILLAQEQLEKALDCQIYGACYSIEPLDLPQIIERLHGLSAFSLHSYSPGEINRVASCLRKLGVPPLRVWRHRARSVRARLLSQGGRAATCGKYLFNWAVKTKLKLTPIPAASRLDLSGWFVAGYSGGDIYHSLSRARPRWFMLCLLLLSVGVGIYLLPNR
As usually defined, the IC50 is the midpoint of a concentration-inhibition curve. For the compound `Cc1cc(=O)oc2cc(O)ccc12` [4-Methyl-7-hydroxycoumarin], the IC50 came out at 33.8 µM. In turn, `COc1cc(OC)c2c(-c3ccccc3)cc(=O)oc2c1` [5,7-dimethoxy-4-phenyl-chromen-2-one] yielded an IC50 of 63 µM. As to `C=CCc1c(O)c(CC=C)c2oc(=O)cc(-c3ccccc3)c2c1O` [Neoflavonoid derivative, 8c], the IC50 was 45.8 µM. As to `O=c1cc(-c2ccccc2)c2ccc(O)cc2o1` [7-Hydroxy-4-phenyl-chromen-2-one], 41.6 µM corresponded to half-maximal inhibition (IC50). `C=CCOc1cc(OCC=C)c2c(C)cc(=O)oc2c1` [Neoflavonoid derivative, 6b] came in with an IC50 of 38.4 µM. The compound `O=c1ccc2c(O)cc(O)cc2o1` [Coumarin derivative, 1a] came in with an IC50 of 39.7 µM.

`COc1cc(OC)c2ccc(=O)oc2c1` [Coumarin derivative, 2a] had an IC50 of 58 µM. For `COc1cc2c(cc1O)oc(=O)c1c3cc(O)c(O)cc3oc21` [LQB-34], the midpoint of inhibition, the IC50, lay at 18 µM. `O=c1cc(-c2ccccc2)c2c(O)cc(O)cc2o1` displayed a half-inhibitory concentration (IC50) of 27 µM. `C=CCOc1cc(OCC=C)c2ccc(=O)oc2c1` [Neoflavonoid derivative, 6a] registered an IC50 of 26.2 µM. For `Cc1cc(=O)oc2cc(O)cc(O)c12` [Coumarin derivative, 1b], the IC50 was determined as 47.2 µM.

Compound `C=CCOc1cc(OCC=C)c2c(-c3ccccc3)cc(=O)oc2c1` [Neoflavonoid derivative, 6c] returned an IC50 of 30.3 µM. On to `COc1cc(OC)c2c(C)cc(=O)oc2c1` [Coumarin derivative, 2b], for which 54.1 µM corresponded to half-maximal inhibition (IC50).

`O=c1ccc2ccc(O)cc2o1` [umbelliferone] gave an IC50 of 36.6 µM. The figure for `C=CCc1c(O)c(CC=C)c2oc(=O)ccc2c1O` [Neoflavonoid derivative, 8a] is 17.9 µM.
